In PubChem BioAssay AID1996:
Converted amounts (≈) assume the structure as drawn.

details: buffer; pH 7.4; 200.0 µM

| SMILES | solubility kinetic |
| --- | --- |
| Nc1nc2sc3c(c2cc1C(=O)NCC(=O)O)CCCC3 | > 45.8 µg/mL |
| COC(=O)C(Cc1ccc(O)cc1)NC(=O)NC12CC3CC(CC(C3)C1)C2 (stereo unspecified) | 27.5 µg/mL (≈ 73.8 µM) |
| Fc1cc(Cl)c(OCc2noc(-c3ccsc3)n2)c(Cl)c1 | 0.5 µg/mL (≈ 1.45 µM) |
| O=c1cc([O-])n(C2CCCCCC2)c(=O)[nH]1.[NH4+] | 30 µg/mL |
| O=C(O)C1CCN(C(=O)c2csc(-c3ccc4c(c3)CCO4)n2)CC1 | > 53.8 µg/mL |
| O=C(NCN1CCOCC1)c1cnccn1 | 30.6 µg/mL (≈ 138 µM) |
| O=C(O)c1ccc(S(=O)(=O)NCC2CCCO2)cc1 (stereo unspecified) | 34.7 µg/mL (≈ 122 µM) |
| CN(C)C(=O)Oc1cccc(NC(=O)c2ccccc2C(F)(F)F)c1 | 37.9 µg/mL (≈ 108 µM) |
| COc1ccc2[nH]c3c(=O)n(CCCN4CCOCC4)cnc3c2c1 | > 51.4 µg/mL |
| CC1(C)C=C2C(=NN(c3ccccc3)C(N)=C2C#N)CO1 | > 42 µg/mL |
| CC1CCCC1/C(=N/O)c1ccccc1 (stereo unspecified) | 16.9 µg/mL (≈ 83.1 µM) |
| C=CCNC(=O)COc1cc(C)cc(C)c1C | 30.8 µg/mL (≈ 132 µM) |
| CCc1nc2sccc2c(=O)[nH]1 | > 27 µg/mL |
| Cc1ccc(N(C(C)C(=O)N2CCCC2)S(C)(=O)=O)cc1 (stereo unspecified) | > 46.6 µg/mL |
| COc1ccc2nc(Nc3nc(-c4ccncc4)cs3)sc2c1 | 0.8 µg/mL (≈ 2.35 µM) |
| CCOC(=O)Cn1nc(C)cc1NC(=O)c1ccncc1 | > 43.2 µg/mL |
| N#Cc1ccc(OCC(=O)NNC(=S)NC(=O)C2CC2)cc1 | > 47.8 µg/mL |
| CCOC(=O)C1=C(COC(=O)[C@@H](NC(=O)c2cccc(C)c2)C(C)C)NC(=O)NC1C (stereo partly specified) | > 64.7 µg/mL |
| C=C(c1ccccc1Cl)[n+]1ccccc1.F[B-](F)(F)F | > 45.5 µg/mL |
| COc1ccc(OC)c(S(=O)(=O)NCC(=O)O)c1 | 34.1 µg/mL (≈ 124 µM) |

| SMILES | solubility kinetic |
| --- | --- |
| CC(=O)OC(C(=O)NC1CCCCC1)c1cccc(F)c1 (stereo unspecified) | > 44 µg/mL |
| CC1CCC(C(C)C)C(OCC(O)CN2CCCC(C)C2)C1.Cl (stereo unspecified) | > 52.2 µg/mL |
| COc1cccc(-n2cnc3sc(C)cc3c2=O)c1 | 40.3 µg/mL (≈ 148 µM) |
| COc1cccc(C(=O)O/N=C(\C)c2cnccn2)c1 | 30.7 µg/mL (≈ 113 µM) |
| Cc1cccc(C)c1NC1=NCCCCC1 | > 32.4 µg/mL |
| O=C(Cc1c(F)cccc1Cl)N1CCOCC1 | > 38.7 µg/mL |
| N#Cc1ccc(C(=O)N2CCN(c3ncccn3)CC2)cc1 | > 44 µg/mL |
| COc1ccc(C(C)NC(=O)C23CC4CC(CC(C4)C2)C3)cc1OC (stereo unspecified) | 40.2 µg/mL (≈ 117 µM) |
| O=C1NC2(CCCCCC2)C(=O)N1Cc1cccc([N+](=O)[O-])c1 | 32.1 µg/mL (≈ 101 µM) |
| C=CCNC(=S)/N=c1/ccccn1CC | 28.7 µg/mL (≈ 130 µM) |
| CS(=O)(=O)NCCNc1ccc(C(F)(F)F)cc1[N+](=O)[O-] | 30.3 µg/mL (≈ 92.6 µM) |
| Cc1cc(N2CCCC2)c(F)cc1/C=C\[N+](=O)[O-] | 0.4 µg/mL (≈ 1.6 µM) |
| CSc1ncccc1C(=O)OCC(=O)NCc1cccs1 | 35.8 µg/mL (≈ 111 µM) |
| COC(=O)c1c(C)[nH]c(C(=O)C(C)OC(=O)c2ccco2)c1C (stereo unspecified) | 4.5 µg/mL (≈ 14.1 µM) |
| Cl.O=S(=O)(c1ccc(F)cc1)N1CCCNCC1 | > 44.2 µg/mL |
| CC(OC(=O)CCCc1nc2ccccc2s1)C(=O)NC(N)=O (stereo unspecified) | > 50.3 µg/mL |
| O=C(CCCSc1nc2ccccc2[nH]1)NC1CCCCC1 | > 47.6 µg/mL |
| S=c1[nH]ccn1Cc1ccccc1 | > 28.5 µg/mL |
| Cc1cc(C)nc(Oc2ccc(Br)cc2)n1 | 35.5 µg/mL (≈ 127 µM) |

Other lines, results leading:

| solubility kinetic | SMILES |
| --- | --- |
| > 39.9 µg/mL | Cc1cc(NC(=O)CSc2ccc(F)cc2)no1 |
| 0.9 µg/mL (≈ 2.48 µM) | CCNS(=O)(=O)c1ccc(NC(=O)Nc2cc(C)ccc2OC)cc1 |
| 44 µg/mL (≈ 135 µM) | O=C(CSC1=NCCN1)NC(c1ccccc1)c1ccccc1 |
| 35 µg/mL (≈ 138 µM) | Cn1c(CNc2ccc(O)cc2)nc2ccccc21 |
| 39.4 µg/mL (≈ 138 µM) | COC(=O)c1ccncc1C(=O)Nc1ccc(OC)cc1 |
| 4.1 µg/mL (≈ 13.9 µM) | Cc1ccc(C(=O)COC(=O)c2cn3ccccc3n2)cc1 |
| > 42.4 µg/mL | Cc1csc(NC(=O)CSc2ccccc2F)n1 |
| 37 µg/mL (≈ 130 µM) | COc1cccc(C(=O)NCc2ccc3c(c2)OCO3)c1 |
| 10.2 µg/mL (≈ 29.1 µM) | CCn1cc(CCCC(=O)NCc2ccccc2OC)c2ccccc21 |
| 22.4 µg/mL (≈ 85.1 µM) | O=C(Nc1ccc(-c2ccccc2)cc1)c1ccco1 |
| > 58.1 µg/mL | CC1(CCc2ccccc2)NC(=O)N(CC(=O)Nc2c(F)cccc2F)C1=O (stereo unspecified) |
| 53.8 µg/mL (≈ 112 µM) | O=C(COC(=O)c1ccc(F)c(S(=O)(=O)N2CCOCC2)c1)NCc1ccc2c(c1)OCO2 |
| > 44.1 µg/mL | Cc1cccc(NC(=O)C(=O)C2C(=O)Nc3ccccc32)c1 (stereo unspecified) |
| > 67.3 µg/mL | COc1ccc(S(=O)(=O)N2CCOCC2)cc1NS(=O)(=O)c1ccc(F)c(F)c1 |
| 18.1 µg/mL (≈ 59.6 µM) | Cc1cc(Cl)ccc1NC(=O)C1COc2ccccc2O1 (stereo unspecified) |
| 7.9 µg/mL (≈ 23.7 µM) | O=C(Nc1ccc(Br)cc1)c1ccc2ncsc2c1 |
| 7.5 µg/mL (≈ 28.1 µM) | COc1ccc(NC(=O)c2cc(C)no2)cc1Cl |
| 8.9 µg/mL (≈ 28.2 µM) | Cc1ccc(S(=O)(=O)NCc2cn3ccccc3n2)c(C)c1 |
| 4.9 µg/mL (≈ 17.9 µM) | COc1ccccc1NC1=Nc2cccc3cccc1c23 |
| 4.3 µg/mL (≈ 15.6 µM) | O=C1OC(Nc2ccc3ncccc3c2)c2ccccc21 (stereo unspecified) |
| 45.7 µg/mL (≈ 144 µM) | Cc1c(C(=O)O)sc2[nH]c(=O)n(Cc3ccccc3)c(=O)c12 |
| 15.8 µg/mL | Cc1ccnc(NCc2cccc3ccccc23)c1.Cl |
| 17.3 µg/mL (≈ 62.8 µM) | O=S(=O)(c1cccc2ccccc12)N1CCCCC1 |
| 1.7 µg/mL (≈ 6.55 µM) | O=C1NC(c2ccc(Cl)cc2)Oc2ccccc21 (stereo unspecified) |

| solubility kinetic | SMILES |
| --- | --- |
| 30.7 µg/mL (≈ 86.6 µM) | COc1ccc(CC(=O)Nc2ccccc2N2CCCCC2)cc1OC |
| 4.4 µg/mL (≈ 13.8 µM) | O=C(CN1CCN(c2ccccc2)CC1)c1c[nH]c2ccccc12 |
| 1.4 µg/mL (≈ 3.97 µM) | CCCc1nc(SCC(=O)c2ccc(OC)cc2)c2ccccc2n1 |
| 17.9 µg/mL (≈ 76.1 µM) | CCOC(=O)C1=C(C)Nc2ccccc2S1 |
| 1.5 µg/mL (≈ 5.11 µM) | COc1ccc(NC(=O)c2cc3ccccc3cc2O)cc1 |
| 6 µg/mL (≈ 12 µM) | CCN(Cc1ccccc1)C(=O)COC(=O)c1cc(S(=O)(=O)Nc2ccccc2OC)ccc1O |
| 17 µg/mL (≈ 61 µM) | O=C(NCC1CCCO1)c1cc2cc(Cl)ccc2[nH]1 (stereo unspecified) |
| > 55.5 µg/mL | O=C(CN1C(=O)NC2(CCc3ccccc32)C1=O)Nc1ccccc1Cl (stereo unspecified) |
| 33.9 µg/mL (≈ 101 µM) | Cc1cc(NC(=O)C2=C(O)c3ccccc3S(=O)(=O)N2C)no1 |
| 0.7 µg/mL (≈ 2.18 µM) | NC(=O)c1c(NC(=O)c2ccccc2Cl)sc2c1CCC2 |
| > 32.6 µg/mL | CCC(Cc1ccccc1)NC(=O)C1CC1 (stereo unspecified) |
| 9.1 µg/mL (≈ 21.6 µM) | COc1ccc(NC(=O)c2ccc(NC(=O)COC(=O)c3cnc(C)cn3)cc2)cc1 |
| 12.4 µg/mL (≈ 25.5 µM) | COc1ccc(/C=C/C(=O)OCC(=O)Nc2cccc(S(=O)(=O)NC3=NCCCCC3)c2)cc1 |
| 0.9 µg/mL (≈ 2.55 µM) | Cc1ccc(NC(=O)CN2C(=O)S/C(=C\c3ccccn3)C2=O)cc1 |
| > 51.2 µg/mL | Cc1ccc(C)c(NC(=O)CSc2nccn2Cc2ccco2)c1 |
| > 41.9 µg/mL | O=[N+]([O-])c1ccc(S(=O)(=O)Nc2ccccn2)cc1 |
| 0.7 µg/mL (≈ 1.97 µM) | Cc1cc(C)c2c3c(oc2n1)C(=O)N(c1cccc(Cl)c1)CC(=O)N3 |
| > 54.2 µg/mL | Cc1ccccc1C(=O)NC(=S)N(Cc1ccccc1)c1ccccn1 |
| > 49.9 µg/mL | CC(C)CNC(=O)COCc1cc(-c2ccc3c(c2)OCO3)on1 |
| 5.2 µg/mL (≈ 17.3 µM) | CC(=O)Nc1nc2ccccc2n1Cc1ccccc1Cl |
| 2.5 µg/mL (≈ 8 µM) | COC(=O)c1ccc(C(=O)Nc2ccc(C(C)C)cc2N)cc1 |
| 10.7 µg/mL (≈ 31.3 µM) | CSc1cccc(NC(=O)COC(=O)C2(c3ccccc3)CC2)c1 |
| 6.2 µg/mL (≈ 27.3 µM) | CC(C)CC(=O)Nc1ccc2ccccc2c1 |
